The conditions of data set [1]: cited from earlier work.
A further data set deals with VEGF-A. To be noted: wet AMD patients; cited from earlier work.
In the next data set the target is T1, C5 (Homo sapiens, UniProt P01031).
T1 construct: host or cells: endogenous C5 of study patients
The settings on record: intravitreal injections, Phase 2/3 GATHER1; cited from earlier work.

The test system of a further data set is HUVECs. Kind of data set: H2O2-induced tubule formation in HUVECs co-cultured with ARPE-19 cells (Calcein AM). It counts as cell-based, human. The settings on record: 200 μM H2O2; 10 μg/mL NPs or 5 μg/mL bevacizumab; vs positive control. As for the experimental part: Under oxidative stress induced by 200 μM H2O2, ARPE-19 cells were co-cultured with human umbilical vein endothelial cells (HUVECs) to investigate the influence of H2O2 and drug-loaded PDA NPs on the development of the three-dimensional capillary structure. Exposure to H2O2 induced secretion of VEGF and tubule formation. Cells were then incubated with 5 μg/mL native bevacizumab control or 10 μg/mL NPs with and without anti-VEGF. […] The reaction of PDA NPs with H2O2 also simultaneously degraded (FIG. 6B) and triggered drug release (FIG. 7), favorable for spatiotemporal control of release at disease sites.

The next data set concerns the target T2, C3 (Homo sapiens, UniProt P01024).
T2 construct: host or cells: endogenous C3 of study patients
To be noted: intravitreal injection, Phase 2 FILLY; cited from earlier work.

We go through 5 compounds from US20250009755A1, “COMPOSITIONS AND METHODS FOR THE TREATMENT OF OCULAR DISEASES AND INJURIES” (Ohio State Innovation Foundation, priority 2021, published 2025).

T1 sequence (P01031 19-673 limits assumed): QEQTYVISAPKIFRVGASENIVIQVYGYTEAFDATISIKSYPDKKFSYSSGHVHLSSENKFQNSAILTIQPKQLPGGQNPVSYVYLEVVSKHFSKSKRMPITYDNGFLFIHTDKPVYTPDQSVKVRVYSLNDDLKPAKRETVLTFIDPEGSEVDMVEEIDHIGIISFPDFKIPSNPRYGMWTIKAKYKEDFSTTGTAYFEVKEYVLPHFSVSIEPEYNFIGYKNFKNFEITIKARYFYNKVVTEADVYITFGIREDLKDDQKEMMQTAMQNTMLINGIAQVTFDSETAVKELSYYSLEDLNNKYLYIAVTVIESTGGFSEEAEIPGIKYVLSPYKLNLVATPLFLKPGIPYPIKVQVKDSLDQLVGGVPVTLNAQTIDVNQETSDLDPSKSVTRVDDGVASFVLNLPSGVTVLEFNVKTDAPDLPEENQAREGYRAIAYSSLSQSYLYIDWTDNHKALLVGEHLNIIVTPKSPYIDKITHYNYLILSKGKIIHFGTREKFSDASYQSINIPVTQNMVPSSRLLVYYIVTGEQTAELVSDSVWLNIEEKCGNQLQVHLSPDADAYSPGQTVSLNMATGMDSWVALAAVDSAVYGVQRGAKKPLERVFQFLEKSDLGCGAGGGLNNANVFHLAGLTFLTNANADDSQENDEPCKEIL
T1 sequence (P01031 678-1676 limits assumed): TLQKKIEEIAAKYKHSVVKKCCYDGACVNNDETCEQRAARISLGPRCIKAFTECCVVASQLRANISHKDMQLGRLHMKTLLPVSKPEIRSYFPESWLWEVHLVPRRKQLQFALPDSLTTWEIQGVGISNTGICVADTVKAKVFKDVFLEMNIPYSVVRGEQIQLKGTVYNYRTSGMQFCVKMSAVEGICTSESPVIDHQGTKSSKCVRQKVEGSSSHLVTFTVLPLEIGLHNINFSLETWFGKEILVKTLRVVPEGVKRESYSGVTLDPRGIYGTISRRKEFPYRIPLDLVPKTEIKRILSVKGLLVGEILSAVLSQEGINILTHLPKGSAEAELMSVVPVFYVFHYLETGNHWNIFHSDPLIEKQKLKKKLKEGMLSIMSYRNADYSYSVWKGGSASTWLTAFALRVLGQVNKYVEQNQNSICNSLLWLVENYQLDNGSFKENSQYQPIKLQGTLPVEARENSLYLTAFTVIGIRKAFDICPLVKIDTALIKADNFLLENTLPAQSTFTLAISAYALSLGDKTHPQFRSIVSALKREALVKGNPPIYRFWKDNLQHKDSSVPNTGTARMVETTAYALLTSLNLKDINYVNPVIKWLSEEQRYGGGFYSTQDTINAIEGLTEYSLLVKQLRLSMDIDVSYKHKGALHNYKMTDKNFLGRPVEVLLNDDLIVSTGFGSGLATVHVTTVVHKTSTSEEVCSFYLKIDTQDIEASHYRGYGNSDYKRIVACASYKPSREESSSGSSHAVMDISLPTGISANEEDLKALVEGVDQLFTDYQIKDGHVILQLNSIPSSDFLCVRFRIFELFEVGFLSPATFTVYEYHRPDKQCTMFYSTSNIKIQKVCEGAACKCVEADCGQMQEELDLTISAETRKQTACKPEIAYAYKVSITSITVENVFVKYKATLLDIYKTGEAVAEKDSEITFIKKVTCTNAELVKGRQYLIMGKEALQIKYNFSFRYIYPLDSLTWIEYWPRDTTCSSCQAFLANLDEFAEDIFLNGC
T2 sequence (P01024 23-667 limits assumed): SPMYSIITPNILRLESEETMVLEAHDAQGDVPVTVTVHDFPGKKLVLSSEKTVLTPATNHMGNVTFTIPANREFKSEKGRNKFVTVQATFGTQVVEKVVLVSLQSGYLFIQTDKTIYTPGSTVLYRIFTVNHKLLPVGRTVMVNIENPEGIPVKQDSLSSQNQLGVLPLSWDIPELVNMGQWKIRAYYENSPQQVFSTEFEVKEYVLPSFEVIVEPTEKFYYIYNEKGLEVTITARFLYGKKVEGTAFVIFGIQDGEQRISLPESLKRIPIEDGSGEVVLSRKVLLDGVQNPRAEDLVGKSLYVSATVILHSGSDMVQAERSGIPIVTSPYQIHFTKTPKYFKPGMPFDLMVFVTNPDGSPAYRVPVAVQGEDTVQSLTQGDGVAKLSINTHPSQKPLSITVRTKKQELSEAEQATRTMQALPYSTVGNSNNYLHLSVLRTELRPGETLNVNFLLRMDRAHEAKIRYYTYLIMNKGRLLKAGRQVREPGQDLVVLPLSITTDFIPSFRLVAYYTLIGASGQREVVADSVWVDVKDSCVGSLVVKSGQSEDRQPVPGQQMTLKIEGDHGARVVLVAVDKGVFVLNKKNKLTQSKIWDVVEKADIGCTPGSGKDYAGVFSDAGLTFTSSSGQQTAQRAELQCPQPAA
T2 sequence (P01024 672-1663 partner limits assumed): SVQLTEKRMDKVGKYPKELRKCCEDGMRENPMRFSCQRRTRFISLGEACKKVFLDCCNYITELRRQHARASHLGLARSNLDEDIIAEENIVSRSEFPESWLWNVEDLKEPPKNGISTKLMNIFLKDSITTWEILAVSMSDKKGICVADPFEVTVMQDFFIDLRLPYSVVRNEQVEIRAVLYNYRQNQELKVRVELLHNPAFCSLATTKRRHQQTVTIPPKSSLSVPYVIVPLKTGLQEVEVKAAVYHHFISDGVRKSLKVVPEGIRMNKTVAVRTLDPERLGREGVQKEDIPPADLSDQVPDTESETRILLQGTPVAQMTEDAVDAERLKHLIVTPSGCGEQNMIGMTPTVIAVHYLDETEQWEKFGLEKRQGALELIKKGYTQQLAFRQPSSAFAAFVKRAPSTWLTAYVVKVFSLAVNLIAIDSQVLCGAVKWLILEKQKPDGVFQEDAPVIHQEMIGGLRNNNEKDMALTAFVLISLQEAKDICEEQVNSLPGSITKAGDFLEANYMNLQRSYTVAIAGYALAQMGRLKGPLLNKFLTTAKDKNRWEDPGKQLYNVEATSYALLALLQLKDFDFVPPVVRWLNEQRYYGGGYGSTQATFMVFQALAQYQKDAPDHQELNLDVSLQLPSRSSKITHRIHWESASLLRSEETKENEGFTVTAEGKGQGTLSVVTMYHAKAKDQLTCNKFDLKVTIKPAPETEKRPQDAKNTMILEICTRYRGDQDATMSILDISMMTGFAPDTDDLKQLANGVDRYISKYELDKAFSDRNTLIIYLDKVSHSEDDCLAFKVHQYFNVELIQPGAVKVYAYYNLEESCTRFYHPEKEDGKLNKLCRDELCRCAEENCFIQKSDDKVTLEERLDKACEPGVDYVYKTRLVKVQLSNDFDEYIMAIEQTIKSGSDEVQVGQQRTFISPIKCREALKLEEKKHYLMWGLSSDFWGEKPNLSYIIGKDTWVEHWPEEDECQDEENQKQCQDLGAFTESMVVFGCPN
VEGF-A, sequence (P15692 207-311 limits assumed): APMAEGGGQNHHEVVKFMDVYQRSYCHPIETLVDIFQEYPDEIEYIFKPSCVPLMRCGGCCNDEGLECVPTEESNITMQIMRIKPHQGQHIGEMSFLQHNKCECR

As to `C=CC1=C(C)c2cc3[n-]c(cc4[n-]c(cc5nc(cc1n2)C(C)=C5C=C)c(C)c4CCC(=O)O)c(CCC(=O)O)c3C.[Fe+2]` [Heme], the aqueous solubility result in data set [1] is “insoluble in aqueous solution”. For “RAN: monoclonal antibody fragment with strong affinity to VEGF-A”, the “patients with improved vision” value in the data set on VEGF-A is listed as 29%-40%. avacincaptad pegol: the GA growth rate result at C5 is “significantly reduced GA growth rate”. On to “bevacizumab: a monoclonal antibody that inhibits VEGF-A”, for which the “tubule formation in HUVECs” value with HUVECs is reported as “significant decrease”. As for pegcetacoplan, the GA growth rate result on C3 is “significantly reduced GA growth rate”.
